Reference: patent publication US8552013B2, “Heterocyclic compounds based on N6-substituted adenine, methods of their preparation, their use for preparation of drugs, cosmetic preparations and growth regulators, pharmaceutical preparations, cosmetic preparations and growth regulators containing these compounds” (USTAV Experimentalni Botaniky Akademie Ved Ceske Republiky, priority 2001, dated 2013)

Tests used:
[1] = system: Amaranthus caudatus cotyledon/hypocotyl explants; assay: Amaranthus bioassay, betacyanin content; format: in vivo; details: betacyanin content at the concentration with highest activity
[2] = system: tobacco callus Nicotiana tabacum L. cv. Wisconsin 38; assay: Cytokinin-dependent tobacco callus growth; format: cell-based; details: fresh callus weight at the concentration with highest activity
[3] = system: Triticum aestivum cv. Hereward leaf tips; assay: Retention of chlorophyll in excised wheat leaf tips; format: in vivo; details: chlorophyll retention at the concentration with highest activity
Summary of the method: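 Tips of first leaves from 7-day wheat (cv. Hereward) seedlings kept on compound solutions (10^−8 to 10^−4 M, from DMSO stock) for 96 h in the dark at 25 °C. Chlorophyll extracted in 80% ethanol at 80 °C and read at 665 nm. Activity at the best concentration expressed relative to 10^−4 M BAP (100%), five replicates.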

HOS = assay: Calcein AM cytotoxicity, HOS; format: cell-based; details: Homo sapiens, HOS, 72 h
B16-F0 melanoma = assay: Calcein AM cytotoxicity, B16-F0; format: cell-based; details: Mus musculus, B16F0, 72 h, read-out: IC 50, B16-F0
Summary of the method: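 Cells pre-incubated 24 hours, then exposed for 72 hours at 37° C. to six 4-fold compound dilutions in duplicate, top well concentration usually 266.7 μM. Viability read by Calcein AM fluorescence after 1 hour; GI50 taken from dose-response curves of survival relative to control wells.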

SMILES	activity (%) [10^−5 mol · l^−1 BAP = 100%] [1]	Activity (%) [10^−4 mol · l^−1 BAP = 100%] [2]	Activity (%) [10^−4 mol · l^−1 BAP = 100%] [3]	IC50 (HOS)	IC50 (B16-F0 melanoma)
Fc1ccccc1CNc1ncnc2nc[nH]c12 [6-(2-fluorobenzylamino)purine]	116 (±3) %	111 (±21) %	169 (±20) %	> 167 µM	
Cc1ccccc1CNc1ncnc2nc[nH]c12 [6-(2-methylbenzylamino)purine]	98 (±22) %	118 (±3) %	158 (±29) %	> 167 µM	
Fc1cccc(CNc2ncnc3nc[nH]c23)c1 [6-(3-fluorobenzylamino)purine]	140 (±5) %	135 (±8) %	200 (±25) %	> 167 µM	
Ic1cccc(CNc2ncnc3nc[nH]c23)c1 [6-(3-iodobenzylamino)purine]	79 (±3) %	76 (±8) %	83.5 (±23) %	> 167 µM	
COc1cccc(CNc2ncnc3nc[nH]c23)c1 [6-(3-methoxybenzylamino)purine]	90 (±16) %	76 (±20) %	178 (±16) %	> 167 µM	41.5 µM
Cc1ccc(CNc2ncnc3nc[nH]c23)cc1 [6-(4-methylbenzylamino)purine]	26 (±10) %	52 (±8) %	35 (±23) %	> 167 µM	
Oc1cccc(CNc2ncnc3nc[nH]c23)c1 [meta-topolin, 6-(3-hydroxybenzylamino)purine]				> 167 µM	90.6 µM
Oc1ccccc1CNc1ncnc2nc[nH]c12 [ortho-topolin, 6-(2-hydroxybenzylamino)purine]				> 167 µM	150 µM
